“Also recorded” adds a separate entry of the source.
What was measured:
[1] = tested on: UC, NSCLC, TNBC and PDAC patients; assay: Validation of the 6-gene signature (6TBRS) in atezolizumab clinical trials (IMvigor210, POPLAR); format: in vivo, human; settings: patients with high expression of the 6-gene signature
Source text: We developed a pan-tissue 6-gene F-TBRS based on the 19-gene Pan-F-TBRS data described above but further prioritizing TGF-β pathway components (TGFB1 and TGFBR2) and targets (CTGF, ADAM19, ACTA2, and COMP). To validate the predictive value of the 6-gene signature, we calculated hazard ratios for prognostic effects (using univariate continuous Cox proportional hazards regression models) and predictive effects, and calculated hazard ratios for predictive effects (using the log-rank test with median cutoff) in atezolizumab clinical trials. […] See, e.g., FIGS. 6B and 6C, which show data from IMvigor210 and the POPLAR study (NCT01903993), respectively.

[2] = tested on: metastatic urothelial carcinoma (mUC) patients; assay: IMvigor210 single-arm phase II study of atezolizumab: response (RECIST v1.1) and overall survival; format: in vivo, human
Description: Samples for this analysis were collected from IMvigor210, which was a single-arm phase II study investigating atezolizumab (1200 mg every 3 weeks (q3w)) in metastatic urothelial carcinoma (mUC) patients (Clinical Trial Identifier: NCT02108652). The primary endpoint of the trial was to achieve a partial response (PR) rate of over 10% (Response Evaluation Criteria In Solid Tumors (RECIST) v1.1). Patients who had failed previous platinum-based chemotherapy or previously untreated patients who were not eligible for platinum-based chemotherapy were eligible. The primary endpoint was met for both previously treated and untreated populations. It was a requirement for all patients to have tumor tissue taken in the 2 years prior to study entry. The tissues were initially used for PD-L1 analysis (SP142 antibody using the Ventana platform). PD-L1 positivity was defined as more that 5% of cells staining in the immune component of the tumor tissue. Additional tissue was used for exploratory analysis. All patients had measurable disease at baseline facilitating response assessment. RECIST v1.1 was used to assess response to therapy. Cross-sectional imaging was performed every 6 weeks. All patients gave […] for this analysis.
For investigation of the clinical activity of PD-L1 blockade with atezolizumab, 429 patients with advanced mUC were enrolled in a phase 2, single arm clinical trial (IMvigor210; NCT02108652). Objective response rate was assessed per RECIST v1.1 and served as a trial endpoint. […] Assessment of the association of PD-L1 expression on tumor-infiltrating immune cells (IC) on baseline tumors with response (objective response rate) was a co-primary endpoint. PD-L1 IC status was defined by the percentage of PD-L1-positive immune cells in the tumor microenvironment (TME): IC0 (<1%), IC1 (≥1% but <5%) and IC2+(≥5%).

atezolizumab: anti-PD-L1 antibody (Genentech), CAS Registry Number 1422185-06-5, also known as MPDL3280A
response/benefit from monotherapy [1]: lack of benefit; also recorded: lack of response | response/benefit from monotherapy ([1]; listed as atezolimumab): lack of response | primary endpoint: partial response (PR) rate of over 10% (RECIST v1.1) ([2]; 1200 mg q3w, previously treated and untreated mUC populations): met | response rate ([2]; Lund genomically unstable (GU) subtype): 47.2% | overall survival (OS) benefit ([2]; high PD-L1 IC scores (IC2/3) relative to IC0/1): Improved OS benefit | response ([2]; high TGF-β 2-gene signature (TGFB1, TGFBR2)): lack of response | overall survival (OS) benefit ([2]; high TMB relative to low TMB, median TMB as cutoff): improved OS benefit | response rate ([2]; other Lund subtypes): 17.6% | overall survival (OS) ([2]; patients with both high TMB and high PD-L1 IC scores): Improved OS | complete response (CR) rate ([2]; tumors with high PD-L1 expression on IC (IC2+) versus other IC levels): significantly higher complete response (CR) rate; also recorded: highest CR rate
